Consider 30 molecules from US10308615B2, “Heterocyclic compounds as inhibitors of Vanin-1 enzyme” (Pfizer Inc., priority 2015, dated 2019).

Structures are written as SMILES.

Assay type in all cases: biochemical
Experiment [1] has as its target T1, human vanin-1 (Homo sapiens (Human), UniProt O95497). The experiment can be described thus: Human Vanin-1 Enzyme Assay 1. The conditions noted are these: 25 pM human vanin-1, 50 uM pantetheine 7-amino-4-trifluoromethylcoumarin, 30 min preincubation, 60 min. The gist of the method: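 Purified His6/FLAG-tagged extracellular domain of human vanin-1, secreted from CHO cells, at 25 pM final in 50 mM Tris-HCl pH 8.0, 50 mM KCl, 0.005% Brij-35, 1.6 mM cysteamine, 0.5% DMSO. Inhibitor preincubated 30 min at room temperature; 50 uM pantetheine-AFC substrate, 60 min, fluorescence at 405/510 nm; 11-point four-fold dilution series.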

Experiment [2] addresses T1, human vanin-1. Description: Human Vanin-1 Enzyme Assay 2. The conditions noted are these: 1 nM human vanin-1, 10 uM substrate, 45 min. The gist of the method:
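Purified CHO-expressed His/FLAG-tagged human vanin-1 extracellular domain (1 nM) cleaved pantetheine-AMC-CF3 substrate (10 uM) in pH 8.0 Tris buffer with 1.5 mM cysteamine and 1% DMSO. Fluorescence (ex 405/em 505 nm) was read after 45 min, over an 11-point half-log inhibitor series.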

Experiment [3] addresses T1, human vanin-1. Description: Human Vanin-1 Enzyme Assay 3. The settings on record: 2 nM human vanin-1, 10 uM substrate, 15 min. The gist of the method:
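His/FLAG-tagged extracellular domain of human vanin-1 from CHO cells, used at 2 nM final, with 10 uM pantetheine-AFC substrate. Buffer: 50 mM Tris-HCl pH 8.0, 50 mM KCl, 0.005% Brij-35, 1.5 mM cysteamine, 1% DMSO. 15 min at room temperature; fluorescence read at 405/505 nm across an 11-point 2-fold dilution series.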

T1 sequence (O95497 22-491): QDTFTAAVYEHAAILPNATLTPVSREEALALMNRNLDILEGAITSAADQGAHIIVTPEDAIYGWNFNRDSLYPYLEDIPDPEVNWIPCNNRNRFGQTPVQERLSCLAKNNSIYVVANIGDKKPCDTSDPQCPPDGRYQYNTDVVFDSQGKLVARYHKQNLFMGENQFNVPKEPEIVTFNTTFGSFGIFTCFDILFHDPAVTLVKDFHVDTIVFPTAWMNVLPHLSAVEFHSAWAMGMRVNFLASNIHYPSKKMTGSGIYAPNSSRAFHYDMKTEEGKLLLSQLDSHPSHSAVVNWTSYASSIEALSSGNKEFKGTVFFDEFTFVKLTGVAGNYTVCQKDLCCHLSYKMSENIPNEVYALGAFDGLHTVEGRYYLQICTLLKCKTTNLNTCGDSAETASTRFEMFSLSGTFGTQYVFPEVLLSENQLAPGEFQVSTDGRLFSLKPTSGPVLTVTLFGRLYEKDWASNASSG

In the case of `O=C(c1ccccc1)c1cnc(NCc2cncnc2)nc1` [Example 109, phenyl{2-[(pyrimidin-5-ylmethyl)amino]pyrimidin-5-yl}methanone], the IC50 in experiment [1] came out at 0.143 µM; in experiment [2], 0.145 µM; in experiment [3] it was 0.0953 µM.
For the molecule `CC(C)(Nc1ncc(C(=O)c2cccc(C#N)c2)cn1)c1ccccc1` [Example 3, 3-({2-[(2-phenylpropan-2-yl)amino]pyrimidin-5-yl}carbonyl)benzonitrile], the IC50 is 0.0136 µM in experiment [1], 0.0153 µM in experiment [2] and 0.075 µM in experiment [3].
`N#Cc1cccc(C(=O)c2cnc(NCc3cccnn3)nc2)c1` [Example 108, 3-({2-[(pyridazin-3-ylmethyl)amino]pyrimidin-5-yl}carbonyl) benzonitrile]: the IC50 in experiment [1] came to 0.111 µM; in experiment [2], 0.11 µM; in experiment [3] it was 0.0967 µM.
Taken in the same sequence, the figures for `NC(=O)c1cccc(CNc2ncc(C(=O)c3cccc(Cl)c3)cn2)c1` [Example 48, 3-({[5-(3-chlorobenzoyl)pyrimidin-2-yl]amino}methyl) benzamide] were 0.218 µM, 0.357 µM and 0.398 µM.
Taken in the same sequence, the figures for `Cc1cccc(C(=O)c2cnc(NCc3ccccc3)nc2)c1` [Example 40, [2-(benzylamino)pyrimidin-5-yl](3-methylphenyl) methanone] were 1.74 µM, 0.17 µM and 0.543 µM.
The like results for `NC(=O)c1ccc(CNc2ncc(C(=O)c3ccccc3)cn2)cc1` [Example 106, 4-{[(5-benzoylpyrimidin-2-yl)amino]methyl} benzamide] were, in that order, 0.387 µM, 0.991 µM and 0.423 µM.
With `CC(C)(Nc1ncc(C(=O)c2ccccc2)cn1)c1ccccc1` [Example 110, phenyl{2-[(2-phenylpropan-2-yl)amino]pyrimidin-5-yl}methanone], the values for the IC50 in experiment [1], in experiment [2] and in experiment [3] were 0.422 µM, 0.238 µM and 0.0635 µM, respectively.
The like results for `CS(=O)(=O)c1cccc(C(=O)c2cnc(NCc3ccc(C#N)cc3)nc2)c1` [Example 126, 4-[({5-[3-(methylsulfonyl)benzoyl]pyrimidin-2-yl}amino)methyl] benzonitrile] were, in that order, 0.0282 µM, 0.044 µM and 0.0406 µM.
Take `N#Cc1cccc(C(=O)c2cnc(NCc3ccc(C(N)=O)nc3)nc2)c1` [Example 105, 5-({[5-(3-cyanobenzoyl)pyrimidin-2-yl]amino}methyl) pyridine-2-carboxamide]: the IC50 came out at 0.146 µM in experiment [1], 0.195 µM in experiment [2] and 0.173 µM in experiment [3].
For the molecule `COc1ccc(CNc2ncc(C(=O)c3cccc(C#N)c3)cn2)cc1` [Example 29, 3-({2-[(4-methoxybenzyl)amino]pyrimidin-5-yl}carbonyl) benzonitrile], the IC50 in experiment [1] is 0.122 µM; in experiment [2], 0.0727 µM; in experiment [3], 0.107 µM.
Taken in the same sequence, the figures for `CC(C)(Nc1ncc(C(=O)c2ccc3c(c2)OCCO3)cn1)c1ccccc1` [Example 124, 2,3-dihydro-1,4-benzodioxin-6-yl{2-[(2-phenylpropan-2-yl)amino]pyrimidin-5-yl}methanone] were 0.526 µM, 0.798 µM and 0.223 µM.
For the molecule `N#Cc1cccc(C(=O)c2cnc(NCc3ccc(Cl)cc3)nc2)c1` [Example 28, 3-({2-[(4-chlorobenzyl)amino]pyrimidin-5-yl}carbonyl) benzonitrile], the IC50 in experiment [1] was determined as 0.0382 µM; in experiment [2], 0.0218 µM; in experiment [3], 0.0084 µM.
Taken in the same sequence, the figures for `N#Cc1cccc(C(=O)c2cnc(NCc3ccc(F)cc3)nc2)c1` [Example 31, 3-({2-[(4-fluorobenzyl)amino]pyrimidin-5-yl}carbonyl) benzonitrile] were 0.102 µM, 0.0572 µM and 0.014 µM.
The like results for `O=C(c1cccc(C(F)(F)F)c1)c1ccc(NCc2cccnc2)nn1` [Example 91, {6-[(pyridin-3-ylmethyl)amino]pyridazin-3-yl}[3-(trifluoromethyl)phenyl]methanone] were, in that order, 0.789 µM, 0.783 µM and 0.0913 µM.
Consider `NC(=O)c1ccc(CNc2ncc(C(=O)c3cccc(C(F)(F)F)c3)cn2)cc1` [Example 33, 4-[({5-[3-(trifluoromethyl)benzoyl]pyrimidin-2-yl}amino)methyl] benzamide], for which the results for the IC50 in experiment [1], in experiment [2] and in experiment [3] were 0.0073 µM, 0.0559 µM and 0.206 µM, respectively.
Taken in the same sequence, the figures for `O=C(c1ccccc1)c1cnc(NCc2cnccn2)nc1` [Example 116, phenyl{2-[(pyrazin-2-ylmethyl)amino]pyrimidin-5-yl}methanone] were 0.419 µM, 0.561 µM and 0.321 µM.
Taken in the same sequence, the figures for `N#Cc1cccc(C(=O)c2cnc(NCc3cncnc3)nc2)c1` [Example 120, 3-({2-[(pyrimidin-5-ylmethyl)amino]pyrimidin-5-yl}carbonyl) benzonitrile] were 0.036 µM, 0.0378 µM and 0.0166 µM.
The like results for `O=C(c1ccccc1)c1cnc(NC2(c3cccnc3)CC2)nc1` [Example 114, phenyl(2-{[1-(pyridin-3-yl)cyclopropyl]amino}pyrimidin-5-yl)methanone] were, in that order, 0.38 µM, 0.255 µM and 0.17 µM.
`O=C(c1cnc(NCc2cccnc2)nc1)c1cccc(C(F)(F)F)c1` [Example 12, {2-[(pyridin-3-ylmethyl)amino]pyrimidin-5-yl}[3-(trifluoromethyl)phenyl]methanone]: the IC50 was 0.0019 µM in experiment [1], 0.0029 µM in experiment [2] and 0.0005 µM in experiment [3].
Taken in the same sequence, the figures for `O=C(c1cnc(NCc2cccnc2)nc1)c1ccc2c(c1)OCCO2` [Example 98, 2,3-dihydro-1,4-benzodioxin-6-yl{2-[(pyridin-3-ylmethyl)amino]pyrimidin-5-yl}methanone] were 0.102 µM, 0.149 µM and 0.0555 µM.
On to `O=C(c1cnc(NC2(c3ccccc3)CC2)nc1)c1cccc(C(F)(F)F)c1` [Example 66, {2-[(1-phenylcyclopropyl)amino]pyrimidin-5-yl}[3-(trifluoromethyl)phenyl]methanone], for which the IC50 in experiment [1] was 0.0213 µM; in experiment [2], 0.0448 µM; in experiment [3] it was 0.0106 µM.
Taken in the same sequence, the figures for `N#Cc1cccc(C(=O)c2cnc(NCc3ccnnc3)nc2)c1` [Example 112, 3-({2-[(pyridazin-4-ylmethyl)amino]pyrimidin-5-yl}carbonyl) benzonitrile] were 5.57 µM, 0.856 µM and 1.87 µM.
Taken in the same sequence, the figures for `COc1cccc(C(=O)c2cnc(NCc3ccccc3)nc2)c1` [Example 45, [2-(benzylamino)pyrimidin-5-yl](3-methoxyphenyl) methanone] were 0.794 µM, 0.188 µM and 0.144 µM.
Taken in the same sequence, the figures for `N#Cc1cccc(CNc2ncc(C(=O)c3ccccc3)cn2)c1` [Example 113, 3-{[(5-benzoylpyrimidin-2-yl)amino]methyl} benzonitrile] were 0.872 µM, 0.334 µM and 0.259 µM.
For the molecule `Cc1ccc2cc(C(=O)c3cnc(NCc4cccnc4)nc3)ccc2n1` [Example 104, (2-methylquinolin-6-yl){2-[(pyridin-3-ylmethyl)amino]pyrimidin-5-yl}methanone], the values for the IC50 in experiment [1], in experiment [2] and in experiment [3] were 0.196 µM, 0.117 µM and 0.2 µM, respectively.
In the case of `CC(C)(Nc1ncc(C(=O)c2cccc(C(F)(F)F)c2)cn1)c1ccccc1` [Example 121, {2-[(2-phenylpropan-2-yl)amino]pyrimidin-5-yl}[3-(trifluoromethyl)phenyl]methanone], the IC50 is 0.0323 µM in experiment [1], 0.0504 µM in experiment [2] and 0.0091 µM in experiment [3].
Regarding `N#Cc1cccc(C(=O)c2cnc(NCc3ccc(F)cc3F)nc2)c1` [Example 30, 3-({2-[(2,4-difluorobenzyl)amino]pyrimidin-5-yl}carbonyl) benzonitrile], the IC50 worked out at 0.0364 µM in experiment [1], 0.0355 µM in experiment [2] and 0.0168 µM in experiment [3].
The like results for `N#Cc1cccc(C(=O)c2cnc(NCc3ccc(C(N)=O)cc3)nc2)c1` [Example 68, 4-({[5-(3-cyanobenzoyl)pyrimidin-2-yl]amino}methyl) benzamide] were, in that order, 0.107 µM, 0.0731 µM and 0.0788 µM.
For the molecule `NC(=O)c1ccc(CNc2ncc(C(=O)c3ccc(F)c(C(F)(F)F)c3)cn2)cc1` [Example 87, 4-[({5-[4-fluoro-3-(trifluoromethyl)benzoyl]pyrimidin-2-yl}amino)methyl] benzamide], the IC50 in experiment [1] was found to be 0.0671 µM; in experiment [2], 0.0452 µM; in experiment [3], 0.0259 µM.
Turning to `COc1ccc(C(=O)c2cnc(NCc3ccc(C(N)=O)cc3)nc2)cc1` [Example 59, 4-({[5-(4-methoxybenzoyl)pyrimidin-2-yl]amino}methyl) benzamide], the values for the IC50 in experiment [1], in experiment [2] and in experiment [3] were 2.28 µM, 0.624 µM and 0.192 µM, respectively.

The term IC50 denotes the midpoint of a concentration-inhibition curve.
